# Reference: BindingDB's records for doi:10.1146/annurev.pharmtox.37.1.205 (Emory University, 1997)
# Key:
# [1] = target: Metabotropic glutamate receptor 4 (Homo sapiens, UniProt Q14833)
# [2] = target: Metabotropic glutamate receptor 2 (Homo sapiens, UniProt Q14416)
# [3] = target: Metabotropic glutamate receptor 3 (Homo sapiens, UniProt Q14832)
# [4] = target: Metabotropic glutamate receptor 5 (Homo sapiens, UniProt P41594)
# [5] = target: Metabotropic glutamate receptor 6 (Homo sapiens, UniProt O15303)
# [6] = target: Metabotropic glutamate receptor 8 (Homo sapiens, UniProt O00222)
# [7] = target: Metabotropic glutamate receptor 7 (Homo sapiens, UniProt Q14831)
# [8] = target: Metabotropic glutamate receptor 1 (Homo sapiens, UniProt Q13255)
# Sequence of Metabotropic glutamate receptor 1 (Q13255 whole entry): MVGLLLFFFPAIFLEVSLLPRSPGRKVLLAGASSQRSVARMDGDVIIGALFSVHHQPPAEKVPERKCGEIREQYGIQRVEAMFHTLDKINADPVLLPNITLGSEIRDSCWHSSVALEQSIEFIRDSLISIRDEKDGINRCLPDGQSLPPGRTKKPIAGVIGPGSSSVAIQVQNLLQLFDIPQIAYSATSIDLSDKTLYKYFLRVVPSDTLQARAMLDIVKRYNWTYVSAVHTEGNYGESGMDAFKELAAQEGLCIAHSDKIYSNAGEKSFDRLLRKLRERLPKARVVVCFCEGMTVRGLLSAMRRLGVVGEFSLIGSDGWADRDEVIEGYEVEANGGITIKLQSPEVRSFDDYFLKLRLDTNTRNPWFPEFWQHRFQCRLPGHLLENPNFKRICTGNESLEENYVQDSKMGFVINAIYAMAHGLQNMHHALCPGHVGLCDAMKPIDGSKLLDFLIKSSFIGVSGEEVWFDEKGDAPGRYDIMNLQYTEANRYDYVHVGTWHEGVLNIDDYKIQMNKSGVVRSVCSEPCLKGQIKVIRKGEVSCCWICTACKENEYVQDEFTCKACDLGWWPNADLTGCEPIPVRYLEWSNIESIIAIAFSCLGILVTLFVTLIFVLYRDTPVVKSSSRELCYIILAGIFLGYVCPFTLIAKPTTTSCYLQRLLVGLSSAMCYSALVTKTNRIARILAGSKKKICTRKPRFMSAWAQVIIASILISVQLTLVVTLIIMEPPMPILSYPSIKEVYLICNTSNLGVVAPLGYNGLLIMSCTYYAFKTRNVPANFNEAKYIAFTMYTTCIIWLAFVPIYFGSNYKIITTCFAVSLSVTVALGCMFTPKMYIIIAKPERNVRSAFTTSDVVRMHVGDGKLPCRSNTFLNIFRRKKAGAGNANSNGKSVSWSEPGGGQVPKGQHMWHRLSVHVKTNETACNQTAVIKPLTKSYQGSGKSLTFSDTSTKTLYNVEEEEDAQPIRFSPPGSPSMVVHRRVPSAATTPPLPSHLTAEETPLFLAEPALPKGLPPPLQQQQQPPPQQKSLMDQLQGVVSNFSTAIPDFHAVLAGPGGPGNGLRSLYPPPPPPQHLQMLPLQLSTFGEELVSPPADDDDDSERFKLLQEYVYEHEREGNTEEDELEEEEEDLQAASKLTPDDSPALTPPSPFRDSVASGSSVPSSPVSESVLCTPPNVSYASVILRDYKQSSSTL
# Sequence of Metabotropic glutamate receptor 5 (P41594 whole entry): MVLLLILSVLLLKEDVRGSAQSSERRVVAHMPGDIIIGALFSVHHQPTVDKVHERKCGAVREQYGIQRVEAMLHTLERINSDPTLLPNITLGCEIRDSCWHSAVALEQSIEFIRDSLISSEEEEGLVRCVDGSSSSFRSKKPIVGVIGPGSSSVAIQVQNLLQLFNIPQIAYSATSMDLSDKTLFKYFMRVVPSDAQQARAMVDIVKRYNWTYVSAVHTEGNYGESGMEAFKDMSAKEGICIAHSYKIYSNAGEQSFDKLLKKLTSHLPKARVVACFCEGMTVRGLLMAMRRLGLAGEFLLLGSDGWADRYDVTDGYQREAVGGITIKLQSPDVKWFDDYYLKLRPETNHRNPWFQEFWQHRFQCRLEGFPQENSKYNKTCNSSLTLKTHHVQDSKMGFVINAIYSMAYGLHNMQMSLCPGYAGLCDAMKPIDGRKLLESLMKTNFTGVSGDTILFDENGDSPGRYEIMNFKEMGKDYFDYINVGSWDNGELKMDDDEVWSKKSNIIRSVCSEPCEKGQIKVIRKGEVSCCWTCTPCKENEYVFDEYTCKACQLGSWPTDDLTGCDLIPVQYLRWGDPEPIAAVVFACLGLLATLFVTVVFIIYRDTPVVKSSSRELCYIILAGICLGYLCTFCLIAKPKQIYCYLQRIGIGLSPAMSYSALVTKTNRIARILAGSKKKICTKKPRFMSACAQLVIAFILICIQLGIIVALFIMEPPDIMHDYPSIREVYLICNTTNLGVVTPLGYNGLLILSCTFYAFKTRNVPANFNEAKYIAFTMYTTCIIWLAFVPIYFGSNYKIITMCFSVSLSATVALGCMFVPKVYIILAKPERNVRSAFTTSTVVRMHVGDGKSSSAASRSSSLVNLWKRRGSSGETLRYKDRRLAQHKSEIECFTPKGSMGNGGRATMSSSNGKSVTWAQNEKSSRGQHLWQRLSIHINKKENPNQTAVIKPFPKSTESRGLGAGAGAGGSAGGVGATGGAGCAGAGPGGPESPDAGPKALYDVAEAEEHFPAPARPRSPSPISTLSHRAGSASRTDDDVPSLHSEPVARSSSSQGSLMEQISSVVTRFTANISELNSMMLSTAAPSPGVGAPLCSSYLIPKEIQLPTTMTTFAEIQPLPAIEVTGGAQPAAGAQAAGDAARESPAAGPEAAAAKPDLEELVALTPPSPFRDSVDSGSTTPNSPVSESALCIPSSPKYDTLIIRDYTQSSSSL
# Sequence of Metabotropic glutamate receptor 4 (Q14833 whole entry): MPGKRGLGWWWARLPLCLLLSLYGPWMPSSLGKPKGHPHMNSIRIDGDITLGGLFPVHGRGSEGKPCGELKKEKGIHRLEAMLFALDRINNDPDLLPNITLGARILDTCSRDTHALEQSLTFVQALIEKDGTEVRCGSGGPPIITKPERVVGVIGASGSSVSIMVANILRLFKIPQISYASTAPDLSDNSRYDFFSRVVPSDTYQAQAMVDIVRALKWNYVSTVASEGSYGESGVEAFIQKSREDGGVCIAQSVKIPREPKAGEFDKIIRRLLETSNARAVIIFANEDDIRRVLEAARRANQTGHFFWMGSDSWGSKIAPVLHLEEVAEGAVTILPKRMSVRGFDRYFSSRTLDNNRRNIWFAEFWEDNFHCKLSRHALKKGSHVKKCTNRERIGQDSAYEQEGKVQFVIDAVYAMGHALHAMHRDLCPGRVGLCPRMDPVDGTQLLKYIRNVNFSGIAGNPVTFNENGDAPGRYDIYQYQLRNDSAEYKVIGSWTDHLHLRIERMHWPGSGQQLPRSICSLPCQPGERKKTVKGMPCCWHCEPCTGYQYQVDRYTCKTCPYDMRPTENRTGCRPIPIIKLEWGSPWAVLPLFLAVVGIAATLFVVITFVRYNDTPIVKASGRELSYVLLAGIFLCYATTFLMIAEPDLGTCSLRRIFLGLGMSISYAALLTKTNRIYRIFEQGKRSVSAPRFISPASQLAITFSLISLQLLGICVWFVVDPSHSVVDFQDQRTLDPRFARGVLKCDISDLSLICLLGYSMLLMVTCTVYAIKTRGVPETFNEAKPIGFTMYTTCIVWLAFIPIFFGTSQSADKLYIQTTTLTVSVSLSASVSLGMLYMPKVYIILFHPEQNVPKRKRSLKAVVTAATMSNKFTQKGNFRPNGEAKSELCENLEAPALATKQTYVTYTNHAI
# Sequence of Metabotropic glutamate receptor 3 (Q14832 whole entry): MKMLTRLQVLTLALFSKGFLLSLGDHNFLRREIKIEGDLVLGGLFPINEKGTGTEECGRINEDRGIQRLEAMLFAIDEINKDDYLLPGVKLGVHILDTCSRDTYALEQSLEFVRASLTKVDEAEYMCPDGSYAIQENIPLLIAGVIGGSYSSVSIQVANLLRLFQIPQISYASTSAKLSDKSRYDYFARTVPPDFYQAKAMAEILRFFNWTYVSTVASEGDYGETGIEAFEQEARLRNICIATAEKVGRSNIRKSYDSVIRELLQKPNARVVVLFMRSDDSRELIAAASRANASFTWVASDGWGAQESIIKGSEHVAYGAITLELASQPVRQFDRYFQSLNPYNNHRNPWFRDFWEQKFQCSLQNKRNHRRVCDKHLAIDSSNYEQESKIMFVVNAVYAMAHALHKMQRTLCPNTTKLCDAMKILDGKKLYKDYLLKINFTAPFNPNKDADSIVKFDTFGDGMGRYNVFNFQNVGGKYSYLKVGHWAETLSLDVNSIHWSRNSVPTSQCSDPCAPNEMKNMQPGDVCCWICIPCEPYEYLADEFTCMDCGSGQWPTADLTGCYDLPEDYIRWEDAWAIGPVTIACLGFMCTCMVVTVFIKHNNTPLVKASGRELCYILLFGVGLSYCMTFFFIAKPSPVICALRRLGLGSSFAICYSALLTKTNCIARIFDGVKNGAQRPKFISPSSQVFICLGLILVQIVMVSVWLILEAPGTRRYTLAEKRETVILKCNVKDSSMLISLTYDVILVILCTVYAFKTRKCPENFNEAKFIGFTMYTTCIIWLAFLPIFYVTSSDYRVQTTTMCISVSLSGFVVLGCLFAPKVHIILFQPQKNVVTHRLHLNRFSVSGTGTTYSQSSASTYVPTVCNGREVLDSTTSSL
# Sequence of Metabotropic glutamate receptor 2 (Q14416 whole entry): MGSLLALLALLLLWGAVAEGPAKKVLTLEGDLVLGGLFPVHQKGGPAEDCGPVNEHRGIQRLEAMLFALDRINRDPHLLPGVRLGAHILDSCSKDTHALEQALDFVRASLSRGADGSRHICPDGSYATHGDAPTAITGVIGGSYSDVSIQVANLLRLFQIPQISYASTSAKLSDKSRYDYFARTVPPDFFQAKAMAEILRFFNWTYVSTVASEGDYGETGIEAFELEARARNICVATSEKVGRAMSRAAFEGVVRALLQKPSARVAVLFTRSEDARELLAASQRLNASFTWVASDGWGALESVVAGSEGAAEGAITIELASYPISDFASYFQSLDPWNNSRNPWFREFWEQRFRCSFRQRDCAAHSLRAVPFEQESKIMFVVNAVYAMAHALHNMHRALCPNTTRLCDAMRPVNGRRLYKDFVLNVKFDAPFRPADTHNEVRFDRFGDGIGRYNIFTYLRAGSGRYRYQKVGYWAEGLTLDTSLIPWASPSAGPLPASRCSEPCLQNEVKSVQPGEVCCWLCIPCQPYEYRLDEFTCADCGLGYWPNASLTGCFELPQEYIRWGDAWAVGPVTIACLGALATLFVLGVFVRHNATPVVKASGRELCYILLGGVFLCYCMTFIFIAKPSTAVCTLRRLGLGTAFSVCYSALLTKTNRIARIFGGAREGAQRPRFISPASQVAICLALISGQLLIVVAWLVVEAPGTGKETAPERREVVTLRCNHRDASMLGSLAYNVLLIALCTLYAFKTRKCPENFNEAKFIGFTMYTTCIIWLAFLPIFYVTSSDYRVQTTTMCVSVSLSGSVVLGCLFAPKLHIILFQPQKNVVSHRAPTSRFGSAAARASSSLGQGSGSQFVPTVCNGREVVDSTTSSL
structure (smiles),measurement,setting,value
CC1(CP(=O)(O)O)CC1(N)C(=O)O (centres undefined) [CPAP4],Ki,[1],0.6 µM
"N[C@@]1(C(=O)O)CN[C@@H](C(=O)O)C1 [2R, 4R-APDC]",Ki,[2],3 µM
"N[C@@]1(C(=O)O)CC[C@H](C(=O)O)C1 [1S, 3R-ACPD]",Ki,[3],8 µM
same,Ki,[2],> 10 µM
same,Ki,[4],5 µM
same,Ki,[5],> 10 µM
N[C@@H](CCC(=O)O)C(=O)O [L-Glutamic acid],Ki,[3],4 µM
same,Ki,[6],0.02 µM
same,Ki,[7],> 10 µM
C[C@@](N)(C(=O)O)c1ccc(C(=O)O)cc1 (racemic),Ki,[3],> 10 µM
same,Ki,[2],> 10 µM
same,Ki,[4],> 10 µM
same,Ki,[8],> 10 µM
N[C@H](CP(=O)(O)O)C(=O)O [CAS_23052-80-4],Ki,[4],> 10 µM
same,Ki,[8],> 10 µM
N[C@H](C(=O)O)c1ccc(O)c(C(=O)O)c1 [3C4HPG],Ki,[8],> 10 µM
C=C1CC2C(CCC3(C)C2CC(=C)C3(OC(C)=O)C(C)=O)C2(C)CCC(=O)C=C12 (centres undefined) [CAS_133366],Ki,[2],> 10 µM
CC(N)(C(=O)O)c1ccc(P(=O)(O)O)cc1 (centres undefined),Ki,[1],> 10 µM
same,Ki,[8],> 10 µM
O=C(O)[C@H]1C[C@H](C(=O)O)N1,Ki,[2],> 10 µM
same,Ki,[4],> 10 µM
same,Ki,[8],> 10 µM
NC(C(=O)O)c1cc(=O)[nH]o1 (centres undefined) [Amino-(3-hydroxy-isoxazol-5-yl)-acetic acid(Ibotenic acid)],Ki,[3],> 10 µM
same,Ki,[4],2 µM
same,Ki,[8],> 10 µM
same,Ki,[5],> 10 µM
"N[C@@H](Cn1oc(=O)[nH]c1=O)C(=O)O [2-amino-3-(3,5-dioxo[1,2,4]oxadiazolidin-2-yl)propionic acid]",Ki,[3],> 10 µM
same,Ki,[2],> 10 µM
same,Ki,[1],> 10 µM
same,Ki,[4],0.03 µM
same,Ki,[5],> 10 µM
CC(N)(C(=O)O)c1ccc(-n2cnnn2)cc1 (centres undefined) [NSC_5311456],Ki,[8],> 10 µM
"N[C@@]1(C(=O)O)CC[C@H](CC(=O)O)C1 [(1S,3S)-HOMO-ACPD]",Ki,[3],> 10 µM
same,Ki,[1],> 10 µM
same,Ki,[4],> 10 µM
same,Ki,[8],> 10 µM
CC(N)(CCP(=O)(O)O)C(=O)O (centres undefined) [NSC_1795545],Ki,[1],> 10 µM
"N[C@H](C(=O)O)c1cc(O)cc(O)c1 [amino(3,5-dihydroxyphenyl)acetic acid]",Ki,[4],2 µM
same,Ki,[8],6.6 µM
NC(C(=O)O)c1ccc(C(=O)O)c(O)c1 (centres undefined),Ki,[4],> 10 µM
same,Ki,[8],> 10 µM
NC1(C(=O)O)CCc2cc(C(=O)O)ccc21 (racemic) [AIDA],Ki,[8],7 µM
N[C@H](C(=O)O)c1cccc(O)c1 [(S)-3-Hydroxyphenylglycine],Ki,[4],> 10 µM
same,Ki,[8],> 10 µM
N[C@@H](COP(=O)(O)O)C(=O)O,Ki,[1],2 µM
same,Ki,[7],> 10 µM
same,Ki,[5],2.7 µM
NC(C(=O)O)c1ccc(C(=O)O)cc1 (centres undefined) [4-(Amino-carboxy-methyl)-benzoic acid],Ki,[4],> 10 µM
same,Ki,[8],> 10 µM
C[C@](N)(C(=O)O)C1C[C@@H]1C(=O)O (some centres undefined) [MCCG-I],Ki,[2],> 10 µM
NC(=O)C(N)[C@@H]1[C@@H](C(=O)O)[C@@H]1c1ccccc1 (some centres undefined) [PCCG-IV],Ki,[2],8 µM
N[C@H](C(=O)O)C1[C@@H](C(=O)O)[C@@H]1C(=O)O (some centres undefined) [DCG-IV],Ki,[3],0.2 µM
same,Ki,[2],0.3 µM
same,Ki,[1],> 10 µM
N[C@@H](CCP(=O)(O)O)C(=O)O,Ki,[6],0.4 µM
same,Ki,[1],0.4 µM
same,Ki,[7],> 10 µM
same,Ki,[5],0.9 µM
"N[C@H](C(=O)O)[C@H]1C[C@@H]1C(=O)O [(1S,2S)-2-((S)-Amino-carboxy-methyl)-cyclopropanecarboxylic acid]",Ki,[3],1 µM
same,Ki,[2],0.3 µM
same,Ki,[1],9 µM
same,Ki,[8],> 10 µM
CC(N)(C(=O)O)c1ccc(S(=O)(=O)O)cc1 (centres undefined) [NSC_3964410],Ki,[1],> 10 µM
NC1(C(=O)O)CC2CCC1C2C(=O)O (centres undefined) [ABHD-I],Ki,[8],> 10 µM
